Experimental data taken from US20150140085A1, “FORMULATIONS COMPRISING IBRUTINIB” (PRINCIPIA BIOPHARMA INC., priority 2012, published 2015).

Assays:
[1] = rats, reported; cited from earlier work
[2] = Determination of bioavailability, stomach (oral gavage) v. intraduodenal administration; type: in vivo, Sprague dawley rats; conditions: 20 mg/kg in Captex 355, fed female rats; for AUC / Cmax: plasma
Description: Fed female Sprague dawley rats, 225-250 g with surgically implanted intra-duodenal catheters were obtained commercially. Rats were dosed solutions of ibrutinib via bolus injection: oral gavage was done to measure exposure after oral dosing, or dosing via administration through the intra-duodenal catheter to measure exposure bypassing the stomach. Ibrutinib was dosed at 20 mg/kg at a dose volume of 2 ml/kg. Blood was withdrawn at time points out to 24 hours and Ibrutinib quantitated via LC/MS/MS to obtain plasma concentrations. PK parameters were calculated via commercially available software and measures of exposure were used to assess differences in dosing routes.

Substance: ibrutinib
- oral bioavailability [1]: 22.8%
- F (bioavailability) ([2]; ID (intra-duodenal catheter)): 100%
- AUC ([2]; ID (intra-duodenal catheter)): 4943 ng·h/mL
- Cmax ([2]; ID (intra-duodenal catheter)): 884 ng/mL
- F (bioavailability) ([2]; PO (oral gavage)): 21%
- AUC ([2]; PO (oral gavage)): 998 ng·h/mL
- Cmax ([2]; PO (oral gavage)): 243 ng/mL
